Laboratory results: the supplement of paper PMC10307832

Tests used:
Experiment in all cases: relative viability (nuclei count vs DMSO), 5 days (fraction); higher = more cells survive
NCI-H522 = system: NCI-H522
How it was run: (§1)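 Relative viability is defined as nuclei in treated wells over nuclei in vehicle wells. Duplicate plates were run and medians reported. Lung cancer cell lines in 1536-well plates were dosed by pin tool one day after seeding, with one drug or with a fixed anchor-drug dose plus five library-drug doses (not always all listed) in √10 steps, and nuclei were counted after 5 days.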

HOP-62 = system: HOP-62
How it was run: as §1

PC-3 [JPC-3] = system: PC-3 [JPC-3]
How it was run: as §1

NCI-H1355 = system: NCI-H1355
How it was run: as §1

LU99A = system: LU99A
How it was run: as §1

NCI-H2405 = system: NCI-H2405
How it was run: as §1

NCI-H441 = system: NCI-H441
How it was run: as §1

NCI-H3122 = system: NCI-H3122
How it was run: as §1

EPLC-272H = system: EPLC-272H
How it was run: as §1

EKVX = system: EKVX
How it was run: as §1

H3255 = system: H3255
How it was run: as §1

LXF-289 = system: LXF-289
How it was run: as §1

LCLC-97TM1 = system: LCLC-97TM1
How it was run: as §1

NCI-H1993 = system: NCI-H1993
How it was run: as §1

LK-2 = system: LK-2
How it was run: as §1

HCC-827 = system: HCC-827
How it was run: as §1

ChaGo-K-1 = system: ChaGo-K-1
How it was run: as §1

NCI-H2170 = system: NCI-H2170
How it was run: as §1

In the case of `CCNC(=O)c1noc(-c2cc(C(C)C)c(O)cc2O)c1-c1ccc(CN2CCOCC2)cc1` [Luminespib] + NC(=O)Nc1cc(-c2cccc(F)c2)sc1C(=O)N[C@H]1CCCNC1 [AZD7762] (partner 0.2 µM), the relative viability (NCI-H522; first compound 0.002 µM) is reported as 0.866, the relative viability (NCI-H522; first compound 0.006325 µM) is reported as 0.93 and the relative viability (NCI-H522; first compound 0.02 µM) is reported as 0.694. The relative viability (NCI-H522; first compound 0.06325 µM) was 0.713, the relative viability (NCI-H522; first compound 0.2 µM) was 0.353 and the relative viability (HOP-62; first compound 0.002 µM) was 0.437. It also gave a relative viability (HOP-62; first compound 0.006325 µM) of 0.463, a relative viability (HOP-62; first compound 0.02 µM) of 0.306 and a relative viability (HOP-62; first compound 0.06325 µM) of 0.129. For the same molecule, the relative viability (HOP-62; first compound 0.2 µM) was 0.109, the relative viability (PC-3 [JPC-3]; first compound 0.002 µM) was 0.747 and the relative viability (PC-3 [JPC-3]; first compound 0.006325 µM) was 0.86. It also gave a relative viability (PC-3 [JPC-3]; first compound 0.02 µM) of 0.492, a relative viability (PC-3 [JPC-3]; first compound 0.06325 µM) of 0.319 and a relative viability (PC-3 [JPC-3]; first compound 0.2 µM) of 0.337. It also gave a relative viability (NCI-H1355; first compound 0.002 µM) of 0.822, a relative viability (NCI-H1355; first compound 0.006325 µM) of 0.693 and a relative viability (NCI-H1355; first compound 0.02 µM) of 0.526. The relative viability (NCI-H1355; first compound 0.06325 µM) was 0.324, the relative viability (NCI-H1355; first compound 0.2 µM) was 0.145 and the relative viability (LU99A; first compound 0.002 µM) was 0.378. It also gave a relative viability (LU99A; first compound 0.006325 µM) of 0.347, a relative viability (LU99A; first compound 0.02 µM) of 0.214 and a relative viability (LU99A; first compound 0.06325 µM) of 0.0724. For the same molecule, the relative viability (LU99A; first compound 0.2 µM) was 0.0654, the relative viability (NCI-H2405; first compound 0.002 µM) was 0.865 and the relative viability (NCI-H2405; first compound 0.02 µM) was 0.711. For the same molecule, the relative viability (NCI-H2405; first compound 0.06325 µM) was 0.167, the relative viability (NCI-H2405; first compound 0.2 µM) was 0.127 and the relative viability (NCI-H441; first compound 0.002 µM) was 1.08. It also gave a relative viability (NCI-H441; first compound 0.006325 µM) of 1.05, a relative viability (NCI-H441; first compound 0.02 µM) of 1.18 and a relative viability (NCI-H441; first compound 0.06325 µM) of 0.308. The relative viability (NCI-H441; first compound 0.2 µM) was 0.126, the relative viability (NCI-H3122; first compound 0.002 µM) was 0.948 and the relative viability (NCI-H3122; first compound 0.006325 µM) was 0.942. The relative viability (NCI-H3122; first compound 0.02 µM) was 0.626, the relative viability (NCI-H3122; first compound 0.06325 µM) was 0.109 and the relative viability (NCI-H3122; first compound 0.2 µM) was 0.0654. It also gave a relative viability (EPLC-272H; first compound 0.002 µM) of 0.224, a relative viability (EPLC-272H; first compound 0.006325 µM) of 0.389 and a relative viability (EPLC-272H; first compound 0.02 µM) of 0.193. For the same molecule, the relative viability (EPLC-272H; first compound 0.06325 µM) was 0.0934, the relative viability (EPLC-272H; first compound 0.2 µM) was 0.127 and the relative viability (EKVX; first compound 0.002 µM) was 0.669. The relative viability (EKVX; first compound 0.006325 µM) was 0.68, the relative viability (EKVX; first compound 0.02 µM) was 0.475 and the relative viability (EKVX; first compound 0.06325 µM) was 0.239. The relative viability (EKVX; first compound 0.2 µM) was 0.104, the relative viability (H3255; first compound 0.002 µM) was 0.857 and the relative viability (H3255; first compound 0.006325 µM) was 0.794. It also gave a relative viability (H3255; first compound 0.02 µM) of 0.808, a relative viability (H3255; first compound 0.06325 µM) of 0.774 and a relative viability (H3255; first compound 0.2 µM) of 0.31. It also gave a relative viability (LXF-289; first compound 0.002 µM) of 1.07, a relative viability (LXF-289; first compound 0.006325 µM) of 1.1 and a relative viability (LXF-289; first compound 0.02 µM) of 1.12. It also gave a relative viability (LXF-289; first compound 0.06325 µM) of 0.151, a relative viability (LXF-289; first compound 0.2 µM) of 0.0914 and a relative viability (LCLC-97TM1; first compound 0.002 µM) of 0.251. The relative viability (LCLC-97TM1; first compound 0.006325 µM) was 0.22, the relative viability (LCLC-97TM1; first compound 0.02 µM) was 0.111 and the relative viability (LCLC-97TM1; first compound 0.06325 µM) was 0.167. It also gave a relative viability (LCLC-97TM1; first compound 0.2 µM) of 0.0727, a relative viability (NCI-H1993; first compound 0.002 µM) of 0.759 and a relative viability (NCI-H1993; first compound 0.006325 µM) of 0.772. It also gave a relative viability (NCI-H1993; first compound 0.02 µM) of 0.513, a relative viability (NCI-H1993; first compound 0.06325 µM) of 0.247 and a relative viability (NCI-H1993; first compound 0.2 µM) of 0.237. For the same molecule, the relative viability (LK-2; first compound 0.002 µM) was 0.37, the relative viability (LK-2; first compound 0.006325 µM) was 0.481 and the relative viability (LK-2; first compound 0.02 µM) was 0.278. For the same molecule, the relative viability (LK-2; first compound 0.06325 µM) was 0.0715, the relative viability (LK-2; first compound 0.2 µM) was 0.0593 and the relative viability (HCC-827; first compound 0.002 µM) was 0.162. For the same molecule, the relative viability (HCC-827; first compound 0.006325 µM) was 0.234, the relative viability (HCC-827; first compound 0.02 µM) was 0.16 and the relative viability (HCC-827; first compound 0.06325 µM) was 0.124. For the same molecule, the relative viability (HCC-827; first compound 0.2 µM) was 0.0952, the relative viability (ChaGo-K-1; first compound 0.002 µM) was 0.9 and the relative viability (ChaGo-K-1; first compound 0.006325 µM) was 0.905. The relative viability (ChaGo-K-1; first compound 0.02 µM) was 0.799, the relative viability (ChaGo-K-1; first compound 0.06325 µM) was 0.515 and the relative viability (ChaGo-K-1; first compound 0.2 µM) was 0.172. It also gave a relative viability (NCI-H2170; first compound 0.002 µM) of 0.868, a relative viability (NCI-H2170; first compound 0.006325 µM) of 0.851 and a relative viability (NCI-H2170; first compound 0.06325 µM) of 0.118. It also gave a relative viability (NCI-H2170; first compound 0.2 µM) of 0.104.
